Drawing on patent US20250171437A1 (Agios Pharmaceuticals,Inc., priority 2022, published 2025), this text covers AC50 for 31 compounds.

The target in this experiment is T1, human PAH with the R408W mutation (A375 R408W cells) (Homo sapiens, UniProt P00439, R408W).
T1 construct: expressed in transfected cells
T1 sequence (P00439 1-452 R408W): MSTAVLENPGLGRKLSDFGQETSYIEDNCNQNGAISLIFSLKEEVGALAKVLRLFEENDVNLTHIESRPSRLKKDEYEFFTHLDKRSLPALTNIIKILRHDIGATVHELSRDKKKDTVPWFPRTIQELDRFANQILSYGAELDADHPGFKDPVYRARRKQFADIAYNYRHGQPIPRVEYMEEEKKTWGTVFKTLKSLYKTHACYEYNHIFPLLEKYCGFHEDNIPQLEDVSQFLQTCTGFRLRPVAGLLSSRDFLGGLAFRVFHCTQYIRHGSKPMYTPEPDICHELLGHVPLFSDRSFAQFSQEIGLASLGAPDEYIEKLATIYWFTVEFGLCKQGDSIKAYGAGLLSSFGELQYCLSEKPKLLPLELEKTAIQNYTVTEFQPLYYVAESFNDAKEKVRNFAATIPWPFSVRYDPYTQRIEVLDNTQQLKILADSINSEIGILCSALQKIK
As to the kind of experiment: Cell Based Phenylalanine Flux Assay. To be noted: 24 hrs with compound, then 20 μM sepiapterin and 800 μM 13C9,15N-Phenylalanine for 4 hours, 13C-Tyrosine by LC-MS, average where tested multiple times. In a few lines:
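A375 cells stably expressing human PAH R408W treated 24 h at 37° C with a 10-point 2-fold dose curve in duplicate, 0.5% DMSO. Then 20 μM sepiapterin and 800 μM 13C9,15N-Phe added for 4 h; 13C-Tyr in media measured by LC-MS to give AC50.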

Setting [1] is: A375 cells expressing R408W PAH.

In general, AC50 refers to the concentration at which the activity in the assay is half-maximal. On to `O=C(c1cnc(-c2ccccn2)o1)N1CCc2[nH]cnc2[C@H]1c1nc2ccc(Br)cc2o1` [Example 7, (S)-(4-(6-bromobenzo[d]oxazol-2-yl)-6,7-dihydro-1H-imidazo[4,5-c]pyridin-5(4H)-yl)(2-(pyridin-2-yl)oxazol-5-yl)methanone], for which the AC50 (A375 R408W cells) lay in the range of 500 to 1000 nM.

For `O=C(c1ocnc1C(F)F)N1CCc2[nH]cnc2[C@@H]1c1nc2cc(Cl)cc(F)c2o1` [Example 607, (R)-(4-(5-chloro-7-fluorobenzo[d]oxazol-2-yl)-6,7-dihydro-1H-imidazo[4,5-c]pyridin-5(4H)-yl)(4-(difluoromethyl)oxazol-5-yl)methanone], for the setting “A375 R408W cells”, the AC50 is not above 500 nM.

Consider `Cc1ccc2oc([C@H]3c4nc[nH]c4CCN3C(=O)c3nnc(-c4ccc(F)cn4)o3)nc2c1` [Example 100, (R)-(5-(5-fluoropyridin-2-yl)-1,3,4-oxadiazol-2-yl)(4-(5-methylbenzo[d]oxazol-2-yl)-6,7-dihydro-1H-imidazo[4,5-c]pyridin-5(4H)-yl)methanone], for which, for the setting “A375 R408W cells”, the concentration at half-maximal activity (AC50) was 1000 to 5000 nM.

`Nc1ccc2c(C(=O)N3CCc4[nH]cnc4C3c3nc4cc(F)ccc4o3)cnn2c1` (stereo not shown): the AC50 under setting [1] is not below 5000 nM.

For the compound `O=C(c1nnc(-c2ccccn2)o1)N1Cc2[nH]cnc2[C@H]1c1nc2ccccc2o1` [Example 937, (S)-(4-(benzo[d]oxazol-2-yl)-4,6-dihydropyrrolo[3,4-d]imidazol-5(1H)-yl)(5-(pyridin-2-yl)-1,3,4-oxadiazol-2-yl)methanone], for the setting “A375 R408W cells”, the AC50 lay in the range of 1000 to 5000 nM.

Turning to `CN(C)CCNc1ccc2c(C(=O)N3CCc4[nH]cnc4C3c3nc4cc(F)ccc4o3)cnn2c1` (single isomer, unassigned) [4S enantiomer of N-[2-(dimethylamino)ethyl]-3-[4-(5-fluoro-1], the AC50 under setting [1] was not below 5000 nM.

For the compound `Cc1ncoc1C(=O)N1Cc2[nH]cnc2[C@H]1c1nc2ccccc2o1` [Example 941, (S)-(4-(benzo[d]oxazol-2-yl)-4,6-dihydropyrrolo[3,4-d]imidazol-5(1H)-yl)(4-methyloxazol-5-yl)methanone], the AC50 (A375 R408W cells) lay within 1000 to 5000 nM.

Turning to `Cc1nn(C)cc1-c1nnc(C(=O)N2CCc3[nH]cnc3[C@H]2c2nc3cc(F)ccc3o2)o1` [Example 881, (S)-(5-(1,3-dimethyl-1H-pyrazol-4-yl)-1,3,4-oxadiazol-2-yl)(4-(5-fluorobenzo[d]oxazol-2-yl)-6,7-dihydro-1H-imidazo[4,5-c]pyridin-5(4H)-yl)methanone], the AC50 (A375 R408W cells) was 1000 to 5000 nM.

As to `COc1cccc2oc([C@H]3c4nc[nH]c4CCN3C(=O)c3ncnn3C)nc12` [Example 904, (R)-(4-(4-methoxybenzo[d]oxazol-2-yl)-6,7-dihydro-1H-imidazo[4,5-c]pyridin-5(4H)-yl)(1-methyl-1H-1,2,4-triazol-5-yl)methanone], the AC50 (A375 R408W cells) is not below 5000 nM.

Turning to `CC(C)(O)c1nc(Cl)c(C(=O)N2CCc3[nH]cnc3[C@H]2c2nc3ccc(F)cc3o2)o1` [Example 269, (S)-(4-chloro-2-(2-hydroxypropan-2-yl)oxazol-5-yl)(4-(6-fluorobenzo[d]oxazol-2-yl)-6,7-dihydro-1H-imidazo[4,5-c]pyridin-5(4H)-yl)methanone], the concentration at half-maximal activity (AC50) (A375 R408W cells) fell in the range of 500 to 1000 nM.

For `O=C(c1ccnn1C(F)F)N1CCc2[nH]cnc2C1c1nc2c(F)c(F)ccc2o1` (stereo not shown), the AC50 under setting [1] lay within 1000 to 5000 nM.

`O=C(CCc1ncco1)N1CCc2[nH]cnc2[C@H]1c1nc2cccc(F)c2o1` [Example 387, (S)-1-(4-(7-fluorobenzo[d]oxazol-2-yl)-6,7-dihydro-1H-imidazo[4,5-c]pyridin-5(4H)-yl)-3-(oxazol-2-yl)propan-1-one]: the AC50 (A375 R408W cells) fell in the range of 500 to 1000 nM.

Take `Cc1ccc2oc([C@@H]3c4nc[nH]c4CCN3C(=O)c3ncc(Cl)s3)nc2c1` [Example 1, (S)-(5-chlorothiazol-2-yl)(4-(5-methylbenzo[d]oxazol-2-yl)-6,7-dihydro-1H-imidazo[4,5-c]pyridin-5(4H)-yl)methanone]: where the note is “A375 R408W cells”, the AC50 fell in the range of 500 to 1000 nM.

With `c1ccc2oc([C@@H]3c4nc[nH]c4CN3c3nc4ccccc4o3)nc2c1` (single isomer, unassigned) [Example 931], under “A375 R408W cells”, the AC50 lay in the range of 1000 to 5000 nM.

For the compound `Cc1nc([C@@H](C)O)oc1C(=O)N1CCc2[nH]cnc2[C@@H]1c1nc2cc(F)ccc2o1` [Example 136, ((R)-4-(5-fluorobenzo[d]oxazol-2-yl)-6,7-dihydro-1H-imidazo[4,5-c]pyridin-5(4H)-yl)(2-((R)-1-hydroxyethyl)-4-methyloxazol-5-yl)methanone], the concentration at half-maximal activity (AC50) (A375 R408W cells) was not below 5000 nM.

Take `O=C(c1ccnn1CC(F)F)N1CCc2[nH]cnc2[C@@H]1c1nc2cccc(F)c2o1` [Example 848, (R)-(1-(2,2-difluoroethyl)-1H-pyrazol-5-yl)(4-(7-fluorobenzo[d]oxazol-2-yl)-6,7-dihydro-1H-imidazo[4,5-c]pyridin-5(4H)-yl)methanone]: the AC50 (A375 R408W cells) was in the range of 500 to 1000 nM.

For the compound `COc1ccc2oc([C@@H]3c4nc[nH]c4CCN3C(=O)c3oc(C(C)(C)O)nc3C(F)F)nc2c1` [Example 339, (S)-(4-(difluoromethyl)-2-(2-hydroxypropan-2-yl)oxazol-5-yl)(4-(5-methoxybenzo[d]oxazol-2-yl)-6,7-dihydro-1H-imidazo[4,5-c]pyridin-5(4H)-yl)methanone], the concentration at half-maximal activity (AC50) (A375 R408W cells) lay in the range of 500 to 1000 nM.

As for `O=C(c1ocnc1C(F)F)N1CCc2[nH]cnc2[C@H]1c1nc2c(Br)cccc2o1` [Example 433, (S)-(4-(4-bromobenzo[d]oxazol-2-yl)-6,7-dihydro-1H-imidazo[4,5-c]pyridin-5(4H)-yl)(4-(difluoromethyl)oxazol-5-yl)methanone], the AC50 (A375 R408W cells) is not above 500 nM.

Take `O=C(c1cnn2cc(N3CCC(O)CC3)ccc12)N1CCc2[nH]cnc2C1c1nc2c(F)cc(F)cc2o1` (stereo not shown): the AC50 under setting [1] was not below 5000 nM.

As to `COc1cc(F)c2oc([C@@H]3c4nc[nH]c4CCN3C(=O)c3oc(C(C)(C)O)nc3C(F)F)nc2c1` [Example 643, (S)-(4-(difluoromethyl)-2-(2-hydroxypropan-2-yl)oxazol-5-yl)(4-(7-fluoro-5-methoxybenzo[d]oxazol-2-yl)-6,7-dihydro-1H-imidazo[4,5-c]pyridin-5(4H)-yl)methanone], the AC50 (A375 R408W cells) was not above 500 nM.

With `COCCOc1ccc2c(C(=O)N3CCc4[nH]cnc4C3c3nc4cc(F)ccc4o3)cnn2c1` (stereo not shown), the half-maximal activity concentration (AC50) under setting [1] lay within 1000 to 5000 nM.

Turning to `C[C@H](O)c1nc(C(F)F)c(C(=O)N2CCc3[nH]cnc3[C@H]2c2nc3cccc(F)c3o2)o1` [Example 243, (4-(difluoromethyl)-2-((S)-1-hydroxyethyl)oxazol-5-yl)((S)-4-(7-fluorobenzo[d]oxazol-2-yl)-6,7-dihydro-1H-imidazo[4,5-c]pyridin-5(4H)-yl)methanone], the half-maximal activity concentration (AC50) (A375 R408W cells) is not above 500 nM.

With `Cc1cc(F)cc2nc([C@@H]3c4nc[nH]c4CCN3C(=O)c3oc(C(C)(C)O)nc3C(F)F)oc12` [Example 655, (S)-(4-(difluoromethyl)-2-(2-hydroxypropan-2-yl)oxazol-5-yl)(4-(5-fluoro-7-methylbenzo[d]oxazol-2-yl)-6,7-dihydro-1H-imidazo[4,5-c]pyridin-5(4H)-yl)methanone], the AC50 (A375 R408W cells) is not above 500 nM.

For `Cc1cc(-c2nnc(C(=O)N3CCc4[nH]cnc4C3c3nc4cc(F)ccc4o3)o2)nn1C` (stereo not shown), under setting [1], the AC50 lay in the range of 1000 to 5000 nM.

For `CC(C)(O)c1nc(C(=O)N2CCc3[nH]cnc3C2c2nc3cc(F)ccc3o2)no1` (stereo not shown), under setting [1], the AC50 was not below 5000 nM.

Turning to `O=C(c1cnco1)N1CCc2[nH]cnc2C1c1nc2ccc(F)c(F)c2o1` (stereo not shown), the AC50 under setting [1] lay within 1000 to 5000 nM.

Regarding `O=C(c1cnn(-c2ccccn2)c1)N1CCc2[nH]cnc2[C@H]1c1nc2cc(F)ccc2o1` [Example 879, (S)-(4-(5-fluorobenzo[d]oxazol-2-yl)-6,7-dihydro-1H-imidazo[4,5-c]pyridin-5(4H)-yl)(1-(pyridin-2-yl)-1H-pyrazol-4-yl)methanone], the half-maximal activity concentration (AC50) (A375 R408W cells) was in the range of 1000 to 5000 nM.

With `[2H][C@@]1(c2nc3cccc(F)c3o2)c2nc[nH]c2CCN1C(=O)c1ocnc1C(F)F` [Example 899, (S)-(4-(difluoromethyl)oxazol-5-yl)(4-deuterium-4-(7-fluorobenzo[d]oxazol-2-yl)-6,7-dihydro-1H-imidazo[4,5-c]pyridin-5(4H)-yl)methanone], the AC50 (A375 R408W cells) was not above 500 nM.

As for `O=C(CCc1nccs1)N1CCc2[nH]cnc2C1c1nc2ccc(F)cc2o1` (stereo not shown), the AC50 under setting [1] is not below 5000 nM.

As for `CC(C)(O)c1nc(C(F)F)c(C(=O)N2CCc3[nH]cnc3[C@H]2c2nc3cccc(Cl)c3o2)o1` [Example 423, (S)-(4-(7-chlorobenzo[d]oxazol-2-yl)-6,7-dihydro-1H-imidazo[4,5-c]pyridin-5(4H)-yl)(4-(difluoromethyl)-2-(2-hydroxypropan-2-yl)oxazol-5-yl)methanone], the AC50 (A375 R408W cells) was not above 500 nM.

Regarding `O=C(c1ocnc1C(F)F)N1CCc2[nH]cnc2[C@@H]1c1nc2cc(Br)cc(F)c2o1` [Example 574, (R)-(4-(5-bromo-7-fluorobenzo[d]oxazol-2-yl)-6,7-dihydro-1H-imidazo[4,5-c]pyridin-5(4H)-yl)(4-(difluoromethyl)oxazol-5-yl)methanone], for the setting “A375 R408W cells”, the half-maximal activity concentration (AC50) is not above 500 nM.
